The values below come from US8299074B2, “P38 MAP kinase inhibitors” (RespiVert Ltd., priority 2008, dated 2012).

Like-named read-outs stand apart in the source and are kept apart here. Some results are limits rather than exact numbers.

For one data set, the system named is THP-1 cells. The data set is described as follows: LPS-induced TNF alpha release in THP-1 cells. It is filed as cell-based. To be noted: Homo sapiens, THP-1, read-out: THP-1 (LPS) TNFα IC50. Here is the method: LPS-Induced TNF Alpha Release in THP-1 Cells: Potency […] Coli; O111:B4, Sigma) for 4 hr and the supernatant collected for determination of TNFα concentration by sandwich ELISA (Duo-set, R&D systems). The inhibition of TNFα production was calculated at each concentration by comparison with vehicle control.

For a further data set, the target named is T1, p38 MAPK alpha (MAPK14) (Homo sapiens, UniProt Q16539).
T1 construct: purchased Invitrogen
Kind of data set: Enzyme inhibition assay, p38 MAPK alpha (FRET, Z-LYTE, via MAPKAP-K2). The conditions noted are these: read-out: Enzyme p38α IC50. It is filed as biochemical.

Data set [1] has as its system U937 cells. The data set is described as follows: LPS-induced TNF alpha release in U937 cells. It is filed as cell-based. To be noted: Homo sapiens; read-out: DU937 (LPS) TNFα REC50. As to the method:
(§1) LPS-Induced TNF Alpha/IL-8 Release in U937 Cells: Potency U937 cells, human monocytic cell line, were differentiated to macrophage-type cells by incubation with phorbol myristate acetate (PMA; 100 ng/ml) for 48 to 72 hours. Cells were pre-incubated with final concentrations of compound for 2 hrs. […] Coli: O111:B4, Sigma) for 4 hrs, and the supernatant collected for determination of TNFα and IL-8 concentration by sandwich ELISA (Duo-set, R&D systems). […] The inhibition of IL-8 production was calculated at each concentration of test compound by comparison with vehicle control.

Data set [2] has as its system U937 cells. Kind of data set: LPS-induced IL-8 release in U937 cells. It is filed as cell-based. The conditions noted are these: Homo sapiens, read-out: DU937 (LPS) IL-8 IC50. Here is the method: as §1
The test system of the next data set is BEAS2B cells. The data set is described as follows: Poly I:C-induced ICAM-1 induction in BEAS2B cells. It is filed as cell-based. The conditions noted are these: Homo sapiens, BEAS-2B, read-out: BEAS2B (polyIC) ICAM1 IC50. Here is the method:
Poly I:C-Induced ICAM-1 Induction in BEAS2B Cells: Potency Poly I:C (1 ug/ml) (Invivogen Ltd., San Diego, Calif.) was transfected into BEAS2B cells (human bronchial epithelial cells, ATCC) with Oligofectamine (Invitrogen, Carlsbad, Calif.). Cells were pre-incubated with final concentrations of compound for 2 hrs. The level of ICAM1 expression on the cell surface was determined by cell-based ELISA. Briefly, at 18 hrs after poly I:C transfection, cells were fixed with 4% formaldehyde in PBS. After quenching endogenous peroxidase by adding 0.1% sodium azide and 1% hydrogen peroxide, cells were washed with wash-buffer (0.1% Tween in PBS: PBS-Tween). After blocking the wells with 5% milk in PBS-Tween for 1 hr, the cells were incubated with anti-human ICAM-1 antibody (Cell Signaling Technology, Danvers, Mass.) in 1% BSA PBS overnight at 4° C. Cells were washed with PBS-Tween and incubated with the secondary antibody (HRP-conjugated anti-rabbit IgG, Dako Ltd., Glostrup, Denmark). The ICAM-1 signal was detected by adding substrate and reading at 450 nm with a reference wavelength of 655 nm using a spectrophotometer. […] The measured OD 450-655 readings were corrected for cell number by dividing with the OD595 reading in each well.

Data set [3] has as its system Differentiated U937 cells. The data set is described as follows: MTT assay (cell viability). It is filed as cell-based, human. Here is the method:
MTT Assay Differentiated U937 cells were pre-incubated with compound for 4 hrs in 5% FCS or 10% FCS for 24 hrs. […] After 1 hr incubation, the media were removed, 200 ul of DMSO added to each well and the plates were shaken lightly for 1 h prior to reading the absorbance at 550 nm. The percentage loss of cell viability was calculated for each well relative to vehicle (0.5% DMSO)-treatment. Consequently an apparent increase in cell viability for drug treatment relative to vehicle is tabulated as a negative percentage.

Setting [4] is: Table 3, first MTT column, loss of cell viability at 1 μg/ml.
The mark [5] stands for this setting: Table 3, second MTT column, loss of cell viability at 1 μg/ml.
Setting [6] is: Table 2, loss of cell viability at 1 μg/ml.
Setting [7] is: Table 2, loss of cell viability, test conducted at 10 μg/ml.

T1 sequence (Q16539 whole entry): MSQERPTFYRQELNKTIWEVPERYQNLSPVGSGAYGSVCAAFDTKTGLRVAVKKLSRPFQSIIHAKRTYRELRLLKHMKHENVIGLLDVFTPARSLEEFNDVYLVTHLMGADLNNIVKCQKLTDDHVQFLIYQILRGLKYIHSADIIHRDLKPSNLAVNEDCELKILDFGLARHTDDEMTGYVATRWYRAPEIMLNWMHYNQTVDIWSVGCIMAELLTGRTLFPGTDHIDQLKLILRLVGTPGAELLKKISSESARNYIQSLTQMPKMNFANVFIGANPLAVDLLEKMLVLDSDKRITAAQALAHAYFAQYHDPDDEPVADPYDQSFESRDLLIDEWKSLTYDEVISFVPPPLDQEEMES

`Cc1ccc(-n2nc(C(C)(C)C)cc2NC(=O)Nc2ccc(Oc3ccnc(NC(=O)N4CCC(O)CC4)c3)c3ccccc23)cc1` [Example 51, N-(4-(4-(3-(3-tert-Butyl-1-p-tolyl-1H-pyrazol-5-yl)ureido)naphthalen-1-yloxy)pyridin-2-yl)-4-hydroxypiperidine-1-carboxamide]: the IC50 in the data set with THP-1 cells (Table 3), at p38 MAPK alpha (MAPK14) (Table 3), in the data set with U937 cells [2] (Table 3) and in the data set on BEAS2B cells (Table 3) was under 10 nM each time. In the data set with U937 cells [1], the EC50 is under 10 nM. The “DU937 (cell viability) MTT assay 4 h” value is listed as “− (<=30%)” in data set [3] (setting [4]) and “+ (>30%)” in data set [3] (setting [5]).

In the case of `COCC(=O)Nc1cc(Oc2ccc(NC(=O)Nc3cc(C(C)C)nn3-c3ccc(C)cc3)c3ccccc23)ccn1` [Example 6, N-(4-(4-(3-(3-Isopropyl-1-p-tolyl-1H-pyrazol-5-yl)ureido)naphthalen-1-yloxy)pyridin-2-yl)-2-methoxyacetamide], the IC50 is under 10 nM with THP-1 cells (Table 2), under 10 nM at p38 MAPK alpha (MAPK14) (Table 2), under 5000 nM in the data set with U937 cells [2] (Table 2) and under 5000 nM in the data set on BEAS2B cells (Table 2). For the same compound, the EC50 in the data set with U937 cells [1] is under 10 nM. The “DU937 (cell viability) MTT assay 4 h” value in data set [3] (setting [6]) is reported as “− (<=30%)”. For the same compound, in data set [3] (setting [6]), the “DU937 (cell viability) MTT assay 24 h” value is “− (<=30%)”.

Take `Cc1ccc(-n2nc(C(C)(C)C)cc2NC(=O)Nc2ccc(Oc3ccnc(NC(=O)NCCCCN4CCOCC4)c3)c3ccccc23)cc1` [Example 47, N-(4-(Morpholin-4-yl)butyl)-N′-4-(4-(3-(3-tert-butyl-1-p-tolyl-1H-pyrazol-5-yl)ureido)naphthalen-1-yloxy)pyridin-2-ylurea]: the IC50 in the data set with THP-1 cells (Table 3), at p38 MAPK alpha (MAPK14) (Table 3), with U937 cells [2] (Table 3) and in the data set with BEAS2B cells (Table 3) was under 10 nM throughout. In the data set on U937 cells [1], the EC50 was under 10 nM. Also, the “DU937 (cell viability) MTT assay 4 h” value in data set [3] (setting [4]) and in data set [3] (setting [5]) was “− (<=30%)” throughout.

As to `Cc1ccc(-n2nc(C(C)(C)C)cc2NC(=O)Nc2ccc(Oc3ccnc(NC(=O)N4CC[C@@H](N(C)C)C4)c3)c3ccccc23)cc1` [Example 54, (R)—N-(4-(4-(3-(3-tert-Butyl-1-p-tolyl-1H-pyrazol-5-yl)ureido)naphthalen-1-yloxy)pyridin-2-yl)-3-(dimethylamino)pyrrolidine-1-carboxamide], the IC50 with THP-1 cells (Table 3), on p38 MAPK alpha (MAPK14) (Table 3), in the data set on U937 cells [2] (Table 3) and with BEAS2B cells (Table 3) was under 10 nM in each case. In addition, the EC50 in the data set on U937 cells [1] is under 10 nM. Further, the “DU937 (cell viability) MTT assay 4 h” value in data set [3] (setting [4]) and in data set [3] (setting [5]) was “− (<=30%)” in each case.

For `Cc1ccc(-n2nc(C(C)(C)C)cc2NC(=O)Nc2ccc(Oc3ccnc(NC(=O)N4CCN(C)CC4)c3)c3ccccc23)cc1` [Example 43, N-(4-((4-(3-(3-(tert-Butyl)-1-(p-tolyl)-1H-pyrazol-5-yl)ureido)naphthalen-1-yl)oxy)pyridin-2-yl)-4-methylpiperazine-1-carboxamide], the IC50 in the data set with THP-1 cells (Table 3), at p38 MAPK alpha (MAPK14) (Table 3), in the data set with U937 cells [2] (Table 3) and with BEAS2B cells (Table 3) was under 10 nM each time. Moreover, in the data set with U937 cells [1], the EC50 was under 10 nM. Also, the “DU937 (cell viability) MTT assay 4 h” value in data set [3] (setting [4]) and in data set [3] (setting [5]) was “− (<=30%)” each time.

Turning to `COCC(=O)Nc1cc(Oc2ccc(NC(=O)Nc3cc(C(C)(C)C)nn3-c3ccc(C)cc3)cc2C)ccn1` [Example 23, N-(4-(4-(3-(3-tert-Butyl-1-p-tolyl-1H-pyrazol-5-yl)ureido)-2-methylphenoxy)pyridin-2-yl)-2-methoxyacetamide], the IC50 is under 10 nM with THP-1 cells (Table 2), under 5000 nM at p38 MAPK alpha (MAPK14) (Table 2), under 10 nM with U937 cells [2] (Table 2) and under 5000 nM in the data set with BEAS2B cells (Table 2). In addition, in the data set on U937 cells [1], the EC50 was under 10 nM. Besides, the “DU937 (cell viability) MTT assay 4 h” value in data set [3] (setting [6]) is “− (<=30%)”. Besides, in data set [3] (setting [6]), the “DU937 (cell viability) MTT assay 24 h” value is given as “− (<=30%)”.

With `COCC(=O)NCC(=O)Nc1cc(Oc2ccc(NC(=O)Nc3cc(C(C)(C)C)nn3-c3ccc(C)cc3)c3ccccc23)ccn1` [Example 15, N-(4-(4-(3-(3-tert-Butyl-1-p-tolyl-1H-pyrazol-5-yl)ureido)naphthalen-1-yloxy)pyridin-2-yl)-2-(2-methoxyacetamido)acetamide], the IC50 in the data set on THP-1 cells (Table 2), at p38 MAPK alpha (MAPK14) (Table 2), in the data set on U937 cells [2] (Table 2) and with BEAS2B cells (Table 2) was under 10 nM each time. For the same compound, the EC50 with U937 cells [1] was under 10 nM. Moreover, in data set [3] (setting [6]), the “DU937 (cell viability) MTT assay 4 h” value is listed as “− (<=30%)”. In addition, the “DU937 (cell viability) MTT assay 24 h” value in data set [3] (setting [6]) is “+ (>30%)”.

Turning to `CC(=O)N1CCC(NC(=O)Nc2cc(Oc3ccc(NC(=O)Nc4cc(C(C)(C)C)nn4-c4ccc(C)cc4)c4ccccc34)ccn2)CC1` [Example 39, N-Acetyl 4-(3-(4-(4-(3-(3-tert-butyl-1-p-tolyl-1H-pyrazol-5-yl)ureido)naphthalen-1-yloxy)pyridin-2-yl)ureido)piperidine], the IC50 was under 10 nM in the data set with THP-1 cells (Table 3), under 10 nM on p38 MAPK alpha (MAPK14) (Table 3), under 10 nM in the data set on U937 cells [2] (Table 3) and under 5000 nM in the data set with BEAS2B cells (Table 3). Further, the EC50 in the data set with U937 cells [1] was under 10 nM. Besides, the entries for the “DU937 (cell viability) MTT assay 4 h” value in data set [3] (setting [4]) and in data set [3] (setting [5]) were “− (<=30%)” and “+ (>30%)”, respectively.

For the compound `Cc1ccc(-n2nc(C(C)(C)C)cc2NC(=O)Nc2ccc(Oc3ccnc(NC(=O)CNC(=O)CCN4CCOCC4)c3)c3ccccc23)cc1` [Example 19, N-(2-(4-(4-(3-(3-tert-Butyl-1-p-tolyl-1H-pyrazol-5-yl)ureido)naphthalen-1-yloxy)pyridin-2-ylamino)-2-oxoethyl)-3-morpholinopropanamide], the IC50 in the data set on THP-1 cells (Table 2), at p38 MAPK alpha (MAPK14) (Table 2), in the data set on U937 cells [2] (Table 2) and with BEAS2B cells (Table 2) was under 10 nM each time. Also, in the data set on U937 cells [1], the EC50 was under 10 nM. Further, the “DU937 (cell viability) MTT assay 4 h” value in data set [3] (setting [6]) is listed as “− (<=30%)”. In addition, the “DU937 (cell viability) MTT assay 24 h” value in data set [3] (setting [6]) was “+ (>30%)”.

With `Cc1ccc(-n2nc(C(C)(C)C)cc2NC(=O)Nc2ccc(Oc3ccnc(NC(=O)CO)c3)c3ccccc23)cc1` [Example 5, N-(4-(4-(3-(3-tert-Butyl-1-p-tolyl-1H-pyrazol-5-yl)ureido)naphthalen-1-yloxy)pyridin-2-yl)-2-hydroxyacetamide], the IC50 was under 10 nM with THP-1 cells (Table 2), under 5000 nM on p38 MAPK alpha (MAPK14) (Table 2), under 10 nM in the data set on U937 cells [2] (Table 2) and under 10 nM in the data set with BEAS2B cells (Table 2). Besides, in the data set with U937 cells [1], the EC50 was under 10 nM. Further, the “DU937 (cell viability) MTT assay 4 h” value in data set [3] (setting [7]) is “+^$ (>30%)”. For the same compound, the “DU937 (cell viability) MTT assay 24 h” value in data set [3] (setting [7]) is on record as “+^$ (>30%)”.

For the compound `Cc1ccc(-n2nc(C(C)(C)C)cc2NC(=O)Nc2ccc(Oc3ccnc(NC(=O)NCC(=O)N4CCOCC4)c3)c3ccccc23)cc1` [Example 58, 2-(3-(4-(4-(3-(3-tert-Butyl-1-p-tolyl-1H-pyrazol-5-yl)ureido)naphthalen-1-yloxy)pyridin-2-yl)ureido)acetyl morpholine], the IC50 with THP-1 cells (Table 3), at p38 MAPK alpha (MAPK14) (Table 3), with U937 cells [2] (Table 3) and in the data set on BEAS2B cells (Table 3) was under 10 nM throughout. Also, the “DU937 (cell viability) MTT assay 4 h” value in data set [3] (setting [4]) and in data set [3] (setting [5]) was “− (<=30%)” in each case.
